“Also recorded” adds a separate entry of the source.
What was measured:
PSD-95/nNOS [1] = assay: yeast two-hybrid growth in −LTH medium, pGAD424-PSD-95 and pGBT9-nNOS; format: cell-based
Excerpt: (§1) We utilized the yeast two-hybrid system to investigate the effects of halothane on protein interactions within the NMDA receptor signaling complex. The PDZ domain of nNOS or the C-terminus of NMDA receptor subunit 2B (NR2B) was fused in frame with the GAL4 DNA-binding domain in a yeast vector, pGBT9. The PDZ domain of PSD95 or PSD-93 was fused in frame with the GAL4 activation domain in another yeast vector, pGAD424. Both yeast vectors were co-transformed into the Y190 yeast strain, which was then grown in the absence or presence of halothane at clinically relevant concentrations. Protein-protein interactions were confirmed by both yeast growth on −Leu/−Trp/−His (−LTH) medium and lacz expression. To confirm the yeast two-hybrid results, the GST fusion protein binding assay was performed. The GST-fusion proteins, consisting of the second PDZ domain of PSD-95 or PSD-93, were expressed in bacterial BL21 cells and purified using glutathione-coupled agarose. After preincubation with or without different concentrations of halothane, GST-PSD-95 or GST-PSD-93 was incubated with membrane proteins from rat hippocampus at room temperature for 1 h. After extensive washing, the bound proteins were eluted by boiling in 1×SDS-PAGE sample buffer and detected by immunoblotting.

[2] = tested on: PSD-95/NMDA receptor subunit 2B (NR2B); assay: yeast two-hybrid growth in −LTH medium, pGAD424-PSD-95 and pGBT9-2B; format: cell-based
Excerpt: as §1

PSD-93/NMDA receptor = assay: GST fusion protein binding assay, GST-PSD-93 and NMDA receptors; design: species or system rat; details: preincubation with different concentrations of halothane
Excerpt: as §1, with “Protein-protein interactions were confirmed by both yeast growth on −Leu/−Trp/−His (−LTH) medium and lacz expression.” left out

Y190 yeast strain = assay: yeast growth in −LT media (cytotoxicity control); format: cell-based; details: high halothane concentration (3.6%)
Excerpt: Under normal conditions, PSD-95 interacts with nNOS, resulting in good growth of the yeast carrying pGAD424-PSD-95 and pGBT9-nNOS in −LTH medium. […] Rather, the failure of yeast to grow in −LTH media in the presence of halothane must be due to disruption of protein-protein interactions by halothane. […] These findings confirm the yeast two-hybrid results.
as §1, with “The GST-fusion proteins, consisting of the second PDZ domain of PSD-95 or PSD-93, were expressed in bacterial BL21 cells and purified using glutathione-coupled agarose. After preincubation with or without different concentrations of halothane, GST-PSD-95 or GST-PSD-93 was incubated with membrane proteins from rat hippocampus at room temperature for 1 h.” left out

PSD-95/nNOS [3] = target: T1, PSD-95/nNOS (Rattus norvegicus, UniProt P31016); assay: GST fusion protein binding assay, GST-PSD-95 and nNOS; details: preincubation with different concentrations of halothane
T1 construct: The GST-fusion proteins, consisting of the second PDZ domain of PSD-95 or PSD-93; made in house; host or cells: bacterial BL21 cells (GST fusion); partner from rat hippocampal membranes
Excerpt: as §1

[4] = tested on: PSD-93/NMDA receptor subunit 2B (NR2B); assay: yeast two-hybrid growth in −LTH medium, pGAD424-PSD-93 and pGBT9-2B; format: cell-based
Excerpt: as §1

PSD-93/nNOS [5] = assay: yeast two-hybrid growth in −LTH medium, pGAD424-PSD-93 and pGBT9-nNOS; format: cell-based
Excerpt: as §1

PSD-95/NMDA receptor = target: T2, PSD-95/NMDA receptor (Rattus norvegicus, UniProt P31016); assay: GST fusion protein binding assay, GST-PSD-95 and NMDA receptors; details: preincubation with different concentrations of halothane
T2 construct: The GST-fusion proteins, consisting of the second PDZ domain of PSD-95 or PSD-93; made in house; host or cells: bacterial BL21 cells (GST fusion); partner from rat hippocampal membranes
Excerpt: as §1

PSD-93/nNOS [6] = assay: GST fusion protein binding assay, GST-PSD-93 and nNOS; design: species or system rat; details: preincubation with different concentrations of halothane
Excerpt: as §1

T1 sequence (P31016 160-246 limits assumed): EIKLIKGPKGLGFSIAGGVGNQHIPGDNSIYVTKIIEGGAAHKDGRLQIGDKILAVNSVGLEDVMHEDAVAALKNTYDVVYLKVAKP
T2 sequence (P31016 160-246 limits assumed): as above

FC(F)(F)C(Cl)Br (centres unmarked) [halothane]
growth of the yeast in −LTH media (PSD-95/nNOS [1]; dose dependence): dose-dependently inhibited | yeast growth in −LTH media (PSD-95/nNOS [1]; high concentration (1.3%)): completely inhibited yeast growth | growth of yeast clones in −LTH media (PSD-95/nNOS [1]; low halothane concentrations (0.4%-0.7%)): slowed the growth | growth of the yeast in −LTH media [2]: A similar phenomenon was observed | binding of GST-fusion PSD-93 to rat brain NMDA receptors (PSD-93/NMDA receptor): blocks; also recorded: dose-dependently inhibited | yeast growth in −LT media (Y190 yeast strain): growth did not differ from yeast grown without halothane | binding of GST-fusion PSD-95 to nNOS (PSD-95/nNOS [3]): blocks; also recorded: dose-dependently inhibited | growth of the yeast in −LTH media [4]: inhibited by halothane in a similar way | growth of the yeast in −LTH media (PSD-93/nNOS [5]): inhibited by halothane in a similar way | binding of GST-fusion PSD-95 to rat brain NMDA receptors (PSD-95/NMDA receptor): blocks; also recorded: dose-dependently inhibited | binding of GST-fusion PSD-93 to nNOS (PSD-93/nNOS [6]): blocks; also recorded: dose-dependently inhibited
